Measured values taken from patent US12569502B2, “Use of bile acids and derivatives thereof in preparation of GPR39 agonist” (PEKING UNIVERSITY, priority 2019, dated 2026).
Changes are numbered by the printed parent chain.

Columns and labels:
Assay in all cases: Calcium imaging of GPR39 activation site mutant, transiently transfected cells
Type in all cases: cell-based
Conditions in all cases: FIG. 7
GPR39 mutant F115A = target: T1, GPR39 mutant F115A (Mus musculus, UniProt Q5U431, F115A)
T1 construct: 3HA (N); P2A-mCherry (C); expressed in transfected cells; host or cells: HEK293T, transient (Lipofectamine 3000)
T1 sequence (Q5U431 1-456 F115A): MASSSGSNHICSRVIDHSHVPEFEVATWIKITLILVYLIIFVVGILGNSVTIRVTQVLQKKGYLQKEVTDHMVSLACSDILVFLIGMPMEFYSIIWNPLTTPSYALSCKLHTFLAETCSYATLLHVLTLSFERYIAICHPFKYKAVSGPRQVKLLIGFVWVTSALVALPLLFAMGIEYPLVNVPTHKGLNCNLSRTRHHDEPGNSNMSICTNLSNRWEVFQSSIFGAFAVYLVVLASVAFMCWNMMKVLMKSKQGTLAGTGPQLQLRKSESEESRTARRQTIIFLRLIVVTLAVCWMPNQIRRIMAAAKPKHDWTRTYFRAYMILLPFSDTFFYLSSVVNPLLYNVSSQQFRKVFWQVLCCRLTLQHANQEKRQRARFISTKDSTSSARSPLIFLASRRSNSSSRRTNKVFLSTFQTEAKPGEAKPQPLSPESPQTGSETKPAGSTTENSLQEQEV
Text: (§1) GPR39 mutants E90A, F115A, E116A and D330A were firstly constructed according to the method of Example 5.

GPR39 mutant E116A = target: T2, GPR39 mutant E116A (Mus musculus, UniProt Q5U431, E116A)
T2 construct: 3HA (N); P2A-mCherry (C); expressed in transfected cells; host or cells: HEK293T, transient (Lipofectamine 3000)
T2 sequence (Q5U431 1-456 E116A): T1 sequence (Q5U431 1-456 F115A) with A115F, E116A
Text: as §1

GPR39 mutant D330A = target: T3, GPR39 mutant D330A (Mus musculus, UniProt Q5U431, D330A)
T3 construct: 3HA (N); P2A-mCherry (C); expressed in transfected cells; host or cells: HEK293T, transient (Lipofectamine 3000)
T3 sequence (Q5U431 1-456 D330A): T1 sequence (Q5U431 1-456 F115A) with A115F, D330A
Text: as §1

GPR39 mutant E90A = target: T4, GPR39 mutant E90A (Mus musculus, UniProt Q5U431, E90A)
T4 construct: 3HA (N); P2A-mCherry (C); expressed in transfected cells; host or cells: HEK293T, transient (Lipofectamine 3000)
T4 sequence (Q5U431 1-456 E90A): T1 sequence (Q5U431 1-456 F115A) with E90A, A115F
Text: as §1

C[C@H](CCC(=O)O)[C@H]1CC[C@H]2[C@@H]3CC[C@@H]4C[C@H](OS(=O)(=O)O)CC[C@]4(C)[C@H]3CC[C@]12C [LCAS]
activated: activation of mutant F115A (calcium imaging) (GPR39 mutant F115A) | activation of mutant E116A (calcium imaging) (GPR39 mutant E116A) | activation of mutant D330A (calcium imaging) (GPR39 mutant D330A) | activation of mutant E90A (calcium imaging) (GPR39 mutant E90A)
